In patent US7465576B2, “Method for treating periodontal disease with a bacteriocidal disinfectant” (priority 2004, dated 2008):
Several values for one entry are separate records, joined by “and”; a condition that tells them apart may be missing. Identical values can stand only once. Like-named read-outs stand apart in the source and are kept apart here.

Assays:
[1] = tested on: detached skin wounds of mice; assay: Recovery from skin damage (Test Example 5); assay type: in vivo; settings: applied to wound twice a day
[2] = tested on: putrefying bacteria in fried meat and vegetables; assay: Viable cell numbers in prepared food after spraying (Test Example 3); assay type: cell-based
Description: (§1) With regards to the putrefaction process of prepared food, we investigated whether or not the present bactericidal disinfectant could stop the progress of putrefaction when sprayed of food, and the degree of that bactericidal effect. Normally disinfectants are not applied to prepared food, but very often scraps of food become lodged in a periodontal pocket, providing a nutritional source for bacteria, and since the present bactericidal disinfectant is composed of compounds which are recognized as food additives, it is important to assess these effects. Just-prepared cooked rice, tofu (soybean curd), spinach with sesame dressing, and fried meat and vegetables were each crushed, homogenized, and left at 28° C. for use as the samples. After samples had been left for 5 hours, part of each was taken and used to measure bacterial viable cell number, while the respective disinfectants were sprayed uniformly on the remaining samples. Viable cell numbers were measured 1, 2 and 24 hours after spraying. Water alone was sprayed as a control. After samples had been left for 24 hours part of each was taken for measuring viable cell number, and the respective disinfectants were sprayed uniformly on the remaining samples. As when the samples were left for 5 hours, viable cell numbers were measured 1 hour, 2 hours and 24 hours after spraying. Water alone was sprayed as a control. Viable cell numbers were measured by the poured plate method using 5 g of each sample diluted by ordinary methods.
(§2) The degree of putrefaction of course differs depending on the preparation method, ingredients and environment, but in the case of the cooked rice in this experiment, the viable cell number immediately after preparation was […] cells/g of sample, rising to 1×10^3 cells/g of sample after 5 hours, 5×10^5 cells/g of sample after 24 hours and 7×10^6 cells/g of sample after 48 hours. In the case of the tofu (soybean curd), the initial viable cell number was 2×10^4 cells/g of sample, rising to 8×10^5 cells/g of sample after 5 hours, 9×10^7 cells/g of sample after 24 hours, and 1×10^9 cells/g of sample after 48 hours, with considerable putrefaction. In the case of the spinach with sesame dressing, the viable cell number was 2×10^3 cells/g of sample immediately after preparation, rising to 5×10^4 cells/g of sample after 5 hours, 3×10^7 cells/g of sample after 24 hours and 2×10^8 cells/g of sample after 48 hours. In the case of the fried meat and vegetables, it was […] cells/g of sample immediately after preparation, rising to 2×10^3 cells/g of sample after 5 hours and 2×10^8 cells/g of sample after 24 hours, at which point there was a slight smell of putrefaction, while after 48 hours putrefaction has progressed still further and the viable cell number had risen to 3×10^9 cells/g of sample.

[3] = tested on: putrefying bacteria in tofu (soybean curd); assay: as above; assay type: cell-based
Description: as §1, §2

[4] = tested on: putrefying bacteria in cooked rice; assay: as above; assay type: cell-based
Description: as §1, §2

[5] = tested on: putrefying bacteria in spinach with sesame dressing; assay: as above; assay type: cell-based
Description: as §1, §2

[6] = tested on: plaque adhering to supragingival calculus; assay: Viable cell numbers in plaque soaked in disinfectant (Test Example 4); assay type: cell-based; settings: 60 minutes of immersion
[7] = tested on: thumbnails of volunteers; assay: Elongation of thumbnails (Test Example 7); assay type: in vivo, human; settings: Left (treated) thumbnail
Description: As a general rule the bacterial disinfectants were applied immediately after hand washing. Nail growth and shape are closely tied to individual physical condition, and are a benchmark of health.

[8] = tested on: Red worms
Description: Red worms with a mean length of 40 mm were prepared in groups of 10, the annuli of the red worms were severed with a cutter, and ordinary concentrations of the various bactericidal disinfectants contained in absorbent cotton were applied to the severed ends twice a day, morning and night. Application to the ends was continued even after the severed ends healed, and recovery and growth were observed. Water was applied as a control.

[9] = tested on: MRSA or E. coli O-157; assay type: cell-based; settings: organic substance exceeding 50 ppm
[10] = tested on: plaque adhering to subgingival calculus; assay: Viable cell numbers in plaque soaked in disinfectant (Test Example 4); assay type: cell-based; settings: 60 minutes of immersion
[11] = tested on: putrefying bacteria in prepared food; assay: Viable cell numbers in prepared food after spraying (Test Example 3), summary; assay type: cell-based
Description: With regards to the putrefaction process of prepared food, we investigated whether or not the present bactericidal disinfectant could stop the progress of putrefaction when sprayed of food, and the degree of that bactericidal effect. Normally disinfectants are not applied to prepared food, but very often scraps of food become lodged in a periodontal pocket, providing a nutritional source for bacteria, and since the present bactericidal disinfectant is composed of compounds which are recognized as food additives, it is important to assess these effects. Just-prepared cooked rice, tofu (soybean curd), spinach with sesame dressing, and fried meat and vegetables were each crushed, homogenized, and left at 28° C. for use as the samples. […] Water alone was sprayed as a control. […] Water alone was sprayed as a control. […] Consequently, although complete eradication was not achieved, it can be said that bactericide was largely achieved. That is, there is the ability to halt development of putrefying bacteria in food and a bactericidal effect.

[12] = tested on: spores of sporulating bacteria; assay type: cell-based
[13] = tested on: acid-fast bacteria; assay type: cell-based
[14] = sprayed after 5 hours, 24 hrs after spraying
[15] = sprayed after 5 hours, just after spraying
[16] = sprayed after 24 hours, 1 hr after spraying
[17] = sprayed after 24 hours, 2 hrs after spraying
[18] = sprayed after 24 hours, 24 hrs after spraying
[19] = sprayed after 24 hours, just after spraying

SMILES: N=C(NCCCCCCNC(=N)NC(=N)Nc1ccc(Cl)cc1)NC(=N)Nc1ccc(Cl)cc1 [Hibitane]
- Recovery: Thin skin overall [1]: 5 days
- Recovery: Complete recovery (coat grown back) ([1]; listed as Hibitane gel): 40 days and 38 days
- Recovery: Skin with roughly original thickness ([1]; listed as Hibitane gel): 12 days
- viable cell number [2, 14]: 5 × 10^3 cells/g of sample
- viable cell number [2, 15]: 2 × 10^2 cells/g of sample
- viable cell number [2, 16]: 5 × 10^2 cells/g of sample
- viable cell number [2, 17]: 2 × 10^2 cells/g of sample
- viable cell number [2, 18]: 5 × 10^4 cells/g of sample
- viable cell number [2, 19]: 7 × 10^4 cells/g of sample
- viable cell number [3, 14]: 2 × 10^2 cells/g of sample
- viable cell number [3, 15]: 8 × 10^2 cells/g of sample
- viable cell number [3, 16]: 5 × 10^2 cells/g of sample
- viable cell number [3, 17]: 2 × 10^2 cells/g of sample
- viable cell number [3, 18]: 3 × 10^3 cells/g of sample
- viable cell number [3, 19]: 5 × 10^4 cells/g of sample
- viable cell number [4, 15]: 1 × 10^2 cells/g of sample
- viable cell number [4, 16]: 7 × 10^2 cells/g of sample
- viable cell number [4, 17]: 5 × 10^2 cells/g of sample
- viable cell number [4, 18]: 4 × 10^3 cells/g of sample
- viable cell number [4, 19]: 1 × 10^4 cells/g of sample
- viable cell number [5, 14]: 6 × 10^2 cells/g of sample
- viable cell number [5, 15]: 2 × 10^2 cells/g of sample
- viable cell number [5, 16]: 2 × 10^2 cells/g of sample
- viable cell number [5, 17]: 1 × 10^2 cells/g of sample
- viable cell number [5, 18]: 8 × 10^3 cells/g of sample
- viable cell number [5, 19]: 3 × 10^4 cells/g of sample
- survival of bacteria living inside plaque [6]: half survived
- Elongation of nails ([7]; 10 days): 0.8 mm
- Elongation of nails ([7]; 20 days): 1.7 mm
- Elongation of nails ([7]; 30 days): 2.5 mm
- Elongation of nails ([7]; 40 days): 3.3 mm
- Elongation of nails ([7]; 50 days): 4.2 mm
- Elongation of nails ([7]; 60 days): 5.0 mm
- length of severed red worms ([8]; 5 days after severing, 20 mm when severed): 21 mm
- length of severed red worms ([8]; 10 days after severing): 22 mm
- length of severed red worms ([8]; 15 days after severing): 23 mm
- Deaths ([8]; in vivo): 10
- bactericidal effect in presence of organic substance [9]: the bacteria did not die after 1 minute of contact
- survival of bacteria in plaque [10]: continued to survive
- bactericidal effect on putrefying bacteria in food [11]: no bactericidal effect in the real sense
- effect against spores [12]: ineffective
- effect against acid-fast bacteria [13]: ineffective
